Assay [1] deals with T1, porcine pancreatic lipase (PL) (Sus scrofa, UniProt P00591).
T1 construct: purchased Jiangsu Jingmei Bio technology (Yancheng, China)
T1 sequence (P00591 1-450): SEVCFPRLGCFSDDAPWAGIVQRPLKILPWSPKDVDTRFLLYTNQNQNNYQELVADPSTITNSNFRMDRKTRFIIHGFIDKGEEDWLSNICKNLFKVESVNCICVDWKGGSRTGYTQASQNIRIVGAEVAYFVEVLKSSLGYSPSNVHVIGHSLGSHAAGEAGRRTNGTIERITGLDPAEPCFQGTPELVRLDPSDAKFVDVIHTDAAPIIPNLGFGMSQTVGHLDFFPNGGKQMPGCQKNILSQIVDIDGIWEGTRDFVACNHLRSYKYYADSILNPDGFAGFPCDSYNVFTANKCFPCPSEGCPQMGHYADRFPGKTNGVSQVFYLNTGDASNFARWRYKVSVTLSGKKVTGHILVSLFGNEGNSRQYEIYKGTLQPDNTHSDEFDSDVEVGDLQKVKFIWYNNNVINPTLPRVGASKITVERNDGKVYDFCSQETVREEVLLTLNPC
In words: In vitro PL inhibition assay (p-nitrophenylbutyrate substrate). Format: biochemical. As to conditions: triplicate; for IC50: porcine PL 1 mg/mL in 100 mM Tris HCl, pre-incubation 37 °C 30 min, 5 mM p-nitrophenylbutyrate, absorbance 450 nm, from fitted inhibition curve; for PL inhibition rate: range over concentrations of 0.2–1.0 mg/mL, 37 °C, 30 min pre-incubation. How it is done: (§1) This experiment, based on the method of Glisan et al. and with slight modifications to the experimental method, determined the effects of peptides RK7 and KQ7 on porcine pancreatic lipase (PL). Firstly, dissolve p-nitrophenylbutyrate (5 mM) in a sodium acetate solution (5 mM, containing 1% Triton X-100). Dissolve porcine pancreatic lipase (PL) (1 mg/mL) in 100 mM Tris HCl buffer. Incubate with different concentrations of porcine pancreatic lipase (PL) and peptides in 96-well plates (37 °C) for 30 min. Then, mix with 5 mM p-nitrophenylbutyrate solution to initiate the enzyme reaction. The labeled pig pancreatic lipase antibody binds to form an antibody–antigen enzyme-labeled antibody complex. The substrate is converted to blue by enzyme catalysis and ultimately to yellow by acid action. The intensity of color is positively correlated with the presence of porcine pancreatic lipase (PL) in the sample. The enzyme-linked immunosorbent assay (ELISA) was used to measure the absorbance (OD value) at a wavelength of 450 nm, and the activity concentration of porcine pancreatic lipase (PL) in the sample was calculated using a standard curve.(1) PL inhibition rate/%=1−A−B/C−D × 100 where A is the absorbance value of the sample; B is the absorbance value of the sample blank; C is the absorbance value of the control group; and D is the absorbance value of the control blank group.
All measured data in the experiment were determined independently and measured in triplicate. All data were processed using SPSS Statistics 26.0. Data plots were generated using Origin 8.5 and GraphPad Prism 8.0.2.

In assay [2] the target is T1, porcine pancreatic lipase (PL). Nature of the assay: PL inhibitory activity after simulated gastrointestinal digestion (pepsin, then trypsin). Format: biochemical. To be noted: pepsin pH 2, then trypsin pH 7.5, enzyme–substrate 1:50 w/w, 37 °C. Here is the method:
as §1, with “group. […]” for “group.”

Here are results for 3 molecules from PMC11771213, “Molecular Docking Studies and In Vitro Activity of Pancreatic Lipase Inhibitors from Yak Milk Cheese” (International Journal of Molecular Sciences, 2025).

No end group written: not given here.

With `CC(C)c1c(C(=O)Nc2ccccc2)c(-c2ccccc2)c(-c2ccc(F)cc2)n1CC[C@@H](O)C[C@@H](O)CC(=O)O` [atorvastatin, reference compound], in assay [1], inhibition was half-maximal at 886 µM (IC50) and the PL inhibition rate was 29.27–67.09%.
In assay [1], “KVLPVPQ [KQ7, Lys-Val-Leu-Pro-Val-Pro-Gln]” gave a concentration for half-maximal inhibition (IC50) of 760 µM. In assay [2] (120 min time point), the “PL inhibition rate at 120 min of simulated gastrointestinal digestion” value is 61.31%.
With “RPKHPIK [RK7, Arg-Pro-Lys-His-Pro-Ile-Lys]”, in assay [1], the IC50 was 788 µM and the PL inhibition rate is reported as 19.74–62.32%. The “PL inhibition rate after simulated gastrointestinal digestion (range over digestion)” value in assay [2] (120-minute digestion, sampled every 30 min) was 44.34–62.35%.

By IC50 is commonly meant the concentration that inhibits the measured activity by half. Low readings indicate greater potency in that assay, high ones weaker potency in that assay.
